Laboratory results taken from paper PMC5609913, “Structure based design, synthesis and activity studies of small hybrid molecules as HDAC and G9a dual inhibitors” (Oncotarget, 2017).
Where two headings read alike, the source gives them in different places.

How the values were obtained:
MCF-7 cells = assay: Cell anti-proliferation / toxicity assay (CCK-8), MCF-7; format: cell-based; conditions: Homo sapiens, MCF7, 72 h, CCK-8, read-out: EC50 MCF-7
Description: Cell anti-proliferation assays were performed to determine the toxicity of these inhibitors. […] These compounds were further evaluated against the control cell line HEK293 to test their toxicity with a non-cancerous cell line.
And then the cells were exposed to the different inhibitors with various concentrations for 72 h. […] EC50s were calculated using GraphPad Prizm statistical package with sigmoidal variable slope dose response curve fit.

G9a = target: T1, G9a (Homo sapiens, UniProt Q96KQ7); assay: H3K9Me2 cell immunofluorescence In-Cell Western (ICW) assay in MDA-MB-231; format: cell-based; conditions: MDA-MB-231 cell line, 48 h exposure
T1 construct: endogenous in cells; host or cells: MDA-MB-231
T1 sequence (Q96KQ7 1-1210): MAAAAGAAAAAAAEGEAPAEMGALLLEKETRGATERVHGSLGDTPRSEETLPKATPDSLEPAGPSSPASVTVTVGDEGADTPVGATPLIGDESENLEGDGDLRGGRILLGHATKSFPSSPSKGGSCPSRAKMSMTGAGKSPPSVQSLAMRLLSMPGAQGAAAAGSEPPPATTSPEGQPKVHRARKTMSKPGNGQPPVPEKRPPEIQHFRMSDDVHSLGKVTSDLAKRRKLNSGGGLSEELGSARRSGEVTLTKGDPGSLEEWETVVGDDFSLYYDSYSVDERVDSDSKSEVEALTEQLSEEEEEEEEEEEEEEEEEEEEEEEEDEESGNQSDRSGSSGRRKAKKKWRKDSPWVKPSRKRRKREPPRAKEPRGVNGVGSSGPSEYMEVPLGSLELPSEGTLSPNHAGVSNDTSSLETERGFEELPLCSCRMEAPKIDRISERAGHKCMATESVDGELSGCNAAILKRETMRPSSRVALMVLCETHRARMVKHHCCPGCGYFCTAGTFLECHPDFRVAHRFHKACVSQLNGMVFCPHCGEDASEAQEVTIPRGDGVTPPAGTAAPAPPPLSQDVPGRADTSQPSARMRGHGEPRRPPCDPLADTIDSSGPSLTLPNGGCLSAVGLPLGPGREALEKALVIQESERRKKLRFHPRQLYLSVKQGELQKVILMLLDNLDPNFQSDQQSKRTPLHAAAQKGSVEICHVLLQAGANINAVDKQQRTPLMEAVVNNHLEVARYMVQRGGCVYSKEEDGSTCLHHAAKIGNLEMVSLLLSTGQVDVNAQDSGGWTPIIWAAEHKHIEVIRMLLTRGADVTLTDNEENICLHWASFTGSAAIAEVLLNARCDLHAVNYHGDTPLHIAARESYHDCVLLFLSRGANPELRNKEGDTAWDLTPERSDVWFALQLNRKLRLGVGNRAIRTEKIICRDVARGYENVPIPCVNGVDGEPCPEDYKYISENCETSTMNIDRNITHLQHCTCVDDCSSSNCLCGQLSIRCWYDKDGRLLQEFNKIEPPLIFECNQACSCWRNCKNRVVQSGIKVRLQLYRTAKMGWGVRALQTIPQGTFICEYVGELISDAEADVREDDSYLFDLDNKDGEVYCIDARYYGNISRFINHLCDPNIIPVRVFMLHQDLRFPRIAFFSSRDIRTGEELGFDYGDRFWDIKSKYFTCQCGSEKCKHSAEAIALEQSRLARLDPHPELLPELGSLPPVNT
Description: After the incubation, the media was removed and 100 μl fixation and permeabilization solution (2% formaldehyde in PBS) for fixation was added for 30 min. And then use 200 μl 0.1% Triton X100 in PBS washing solution to wash (allow wash to shake on a plate shaker for 5 min). After five washes, cells were blocked for 1 h with 150 μl blocking buffer to each well (1% BSA in PBS) (allow blocking at room temperature with moderate shaking on a plate shaker). After 1 h, remove the blocking buffer from the blocking step and add primary antibody in blocking buffer to cover the bottom of each well. […] The plates were read on an Odyssey CLX (LiCor) scanner at both 800 nm (H3K9me2 signal) and 700 nm (cell tag 700 stain signal) channels. IC50s were calculated using GraphPad Prizm statistical package with sigmoidal variable slope dose response curve fit.

[1] = Table 6, mean ± SD of triplicates
[2] = Supplementary Table 4, >100 = not reached at 100 μM

`COc1ccc2c(NC3CCN(Cc4ccccc4)CC3)nc(NCCNC(=O)CCCCCCC(=O)NO)nc2c1` [Compound 13, N1-(2-((4-((1-benzylpiperidin-4-yl)amino)-7-methoxyquinazolin-2-yl)amino)ethyl)-N8-hydroxyoctanediamide] was tested, and the EC50 (MCF-7 cells; [1]) was 79.4 ± 2.72 µM and the IC50 (G9a) was 37.8 ± 2.8 µM.

In the case of `COc1ccc2c(NC3CCN(Cc4ccccc4)CC3)nc(NCCNC(=O)CCCCCC(=O)NO)nc2c1` [Compound 14, N1-(2-((4-((1-benzylpiperidin-4-yl)amino)-7-methoxyquinazolin-2-yl)amino)ethyl)-N7-hydroxyheptanediamide], the EC50 (MCF-7 cells; [1]) is reported as 37.4 ± 2.2 µM and the IC50 (G9a) is reported as 7.14 ± 1.62 µM.

For `COc1cc2nc(N3CCCN(C)CC3)nc(NC3CCN(C(=O)CCCCCC(=O)NO)CC3)c2cc1OC` [Compound 20, 7-(4-((6,7-dimethoxy-2-(4-methyl-1,4-diazepan-1-yl)quinazolin-4-yl)amino)piperidin-1-yl)-N-hydroxy-7-oxoheptanamide], the EC50 (MCF-7 cells; [2]) was greater than 100 µM and the IC50 (G9a) was 97.5 ± 2.78 µM.

`COc1ccc2c(NC3CCN(C)CC3)nc(NCCNC(=O)CCCCC(=O)NO)nc2c1` [Compound 15a, N1-hydroxy-N6-(2-((7-methoxy-4-((1-methylpiperidin-4-yl)amino)quinazolin-2-yl)amino)ethyl)adipamide] showed an EC50 (MCF-7 cells; [2]) greater than 100 µM and an IC50 (G9a) of 47 ± 3.33 µM.

In the case of `COc1cc2nc(NCCNC(=O)CCCCCC(=O)NO)nc(NC3CCN(C(C)C)CC3)c2cc1OC` [Compound 5a, N1-hydroxy-N7-(2-((4-((1-isopropylpiperidin-4-yl)amino)-6,7-dimethoxyquinazolin-2-yl)amino)ethyl)heptanediamide], the EC50 (MCF-7 cells; [2]) is reported as greater than 100 µM and the IC50 (G9a) is reported as 66.6 ± 3.98 µM.

`COc1cc2nc(NCCNC(=O)CCCC(=O)NO)nc(NC3CCN(C(C)C)CC3)c2cc1OC` [Compound 7a, N1-hydroxy-N5-(2-((4-((1-isopropylpiperidin-4-yl)amino)-6,7-dimethoxyquinazolin-2-yl)amino)ethyl)glutaramide] was tested, and the EC50 (MCF-7 cells; [2]) was greater than 100 µM and the IC50 (G9a) was 54.6 ± 3.05 µM.

`COc1cc2nc(N3CCCN(C)CC3)nc(NC3CCN(C(=O)CCCCCCC(=O)NO)CC3)c2cc1OC` [Compound 19, 8-(4-((6,7-dimethoxy-2-(4-methyl-1,4-diazepan-1-yl)quinazolin-4-yl)amino)piperidin-1-yl)-N-hydroxy-8-oxooctanamide] showed an EC50 (MCF-7 cells; [2]) greater than 100 µM and an IC50 (G9a) of 99.6 ± 3.13 µM.

For `COc1ccc2c(NC3CCN(C)CC3)nc(NCCNC(=O)CCCC(=O)NO)nc2c1` [Compound 16a, N1-hydroxy-N5-(2-((7-methoxy-4-((1-methylpiperidin-4-yl)amino)quinazolin-2-yl)amino)ethyl)glutaramide], the EC50 (MCF-7 cells; [2]) was greater than 100 µM and the IC50 (G9a) was 45.7 ± 1.76 µM.

`COc1cc2nc(NCCNC(=O)CCCC(=O)NO)nc(NC3CCN(C)CC3)c2cc1OC` [Compound 7, N1-(2-((6,7-dimethoxy-4-((1-methylpiperidin-4-yl)amino)quinazolin-2-yl)amino)ethyl)-N5-hydroxyglutaramide] gave an EC50 (MCF-7 cells; [2]) greater than 100 µM and an IC50 (G9a) of 76.7 ± 0.89 µM.

For `COc1cc2nc(NCCNC(=O)CCCCCCC(=O)NO)nc(NC3CCN(C)CC3)c2cc1OC` [Compound 4, N1-(2-((6,7-dimethoxy-4-((1-methylpiperidin-4-yl)amino)quinazolin-2-yl)amino)ethyl)-N8-hydroxyoctanediamide], the EC50 (MCF-7 cells; [2]) was greater than 100 µM and the IC50 (G9a) was 96.7 ± 1.68 µM.

`COc1cc2nc(NCCNC(=O)CCCCCC(=O)NO)nc(NC3CCN(Cc4ccccc4)CC3)c2cc1OC` [Compound 5b, N1-(2-((4-((1-benzylpiperidin-4-yl)amino)-6,7-dimethoxyquinazolin-2-yl)amino)ethyl)-N7-hydroxyheptanediamide] gave an EC50 (MCF-7 cells; [2]) of 74.6 ± 1.81 µM and an IC50 (G9a) of 87.4 ± 5.44 µM.

Work on `COc1ccc2c(NC3CCN(Cc4ccccc4)CC3)nc(NCCNC(=O)CCCCC(=O)NO)nc2c1` [Compound 15, N1-(2-((4-((1-benzylpiperidin-4-yl)amino)-7-methoxyquinazolin-2-yl)amino)ethyl)-N6-hydroxyadipamide] yielded an EC50 (MCF-7 cells; [2]) greater than 100 µM and an IC50 (G9a) of 72.1 ± 1.37 µM.

Molecule `COc1ccc2c(NC3CCN(Cc4ccccc4)CC3)nc(NCCNC(=O)CCCC(=O)NO)nc2c1` [Compound 16, N1-(2-((4-((1-benzylpiperidin-4-yl)amino)-7-methoxyquinazolin-2-yl)amino)ethyl)-N5-hydroxyglutaramide] has an EC50 (MCF-7 cells; [2]) of 57.3 µM and an IC50 (G9a) of 90.3 ± 3.75 µM.

In the case of `COc1ccc2c(NCCNC(=O)CCCCCC(=O)NO)nc(N3CCCN(C)CC3)nc2c1` [Compound 22, N1-hydroxy-N7-(2-((7-methoxy-2-(4-methyl-1,4-diazepan-1-yl)quinazolin-4-yl)amino)ethyl)heptanediamide], the EC50 (MCF-7 cells; [2]) is reported as greater than 100 µM and the IC50 (G9a) is reported as 60.6 ± 3.66 µM.

With `COc1cc2nc(NCCNC(=O)CCCCCCC(=O)NO)nc(NC3CCN(C(C)C)CC3)c2cc1OC` [Compound 4a, N1-hydroxy-N8-(2-((4-((1-isopropylpiperidin-4-yl)amino)-6,7-dimethoxyquinazolin-2-yl)amino)ethyl)octanediamide] the EC50 (MCF-7 cells; [2]) was greater than 100 µM and the IC50 (G9a) was 74.2 ± 1.94 µM.
